Paper PMC12843137, “Fine-Tuning Side Chain Substitutions: Impacts on the Lipophilicity–Solubility–Permeability Interplay in Macrocyclic Peptides” (Marine Drugs, 2025)
Values after ≈ are worked out from the molar mass of the structure shown. Like-named read-outs stand apart in the source and are kept apart here.

Legend:
[1] = Caco-2 cell permeability study; assay type: in vitro ADME; settings: human; for efflux ratio at 2 h, 5 µM: Caco-2, pH 7.4; for recovery at 2 h, 5 μM: Caco-2, pH 7.4, Caco-2, 5 μM; for Papp A→B at 2 h, 5 µM / Papp B→A at 2 h, 5 µM: pH 7.4, Caco-2, 5 μM; for Papp A→B at 2 h, 5 µM: apical to basolateral; for Papp B→A at 2 h, 5 µM: basolateral to apical
Text: One of the physicochemical quantities that mirrors the interaction of a compound with the cell membrane is permeability. Traditionally, measuring permeability with the PAMPA model provides estimates of passive permeability across a model membrane. […] Therefore, we measure the cell permeability of the six compounds using Caco-2 cells, so that the apical to basolateral (A to B) and basolateral to apical (B to A) permeabilities, and thereby the efflux ratio, can be determined. Three commercial drugs (Table 2) are used as standard compounds to establish and validate our in-house assay.
For Caco-2 cells (originally obtained from the American Type Culture Collection; ATCC, Manassas, VA, USA), 50 μL and […] of cell culture medium are added to each well of the Transwell insert and reservoir, respectively. And then the HTS transwell plates are incubated at 37 °C, 5% CO2 for 1 h before cell seeding. Caco-2 cells are diluted to 6.86 × 10^5 cells/mL with culture medium and 50 μL of cell suspension is dispensed into the filter well of the 96-well HTS Transwell plate. Cells are cultivated for 14–18 days in a cell culture incubator at 37 °C, 5% CO2, 95% relative humidity. Cell culture medium is replaced every other day, beginning no later than 24 h after initial plating. Stock solutions of the test compounds are prepared at a concentration of 10 mM in DMSO. […] Detailed assay procedures are provided in the SI. […]
dilution factor is changed according to the log D value and the LC-MS signal response. The samples are evaluated by LC-MS/MS analysis. All experiments are performed in duplicates.
5. Caco-2 Cell Permeability Assay
The Caco-2 plate is removed from the incubator and washed twice with pre-warmed HBSS (10 mM HEPES, pH 7.4), and then incubated at 37 °C for 30 minutes. The stock solutions of control compounds and test compounds are diluted in DMSO to get 1 mM solutions and then diluted with HBSS (10 mM HEPES, pH 7.4) get 5 μM working solutions. The final concentration of DMSO in the incubation system is 0.5%. To determine the rate of drug transport in the apical to basolateral direction. 125 μL of 5 μM working solution of control compounds and test compounds are added to the Transwell insert (apical compartment), and transfer 50 μL sample (D0 sample) immediately from the apical compartment to a new 96-well plate. Fill the wells in the receiver plate (basolateral compartment) with 235 μL of HBSS (10 mM HEPES, pH 7.4). To determine the rate of drug transport in the basolateral to apical direction. 285 μL of 5 μM working solution of control compounds and test compounds are to the receiver plate wells (basolateral compartment), and transfer 50 μL sample (D0 sample) immediately from the basolateral compartment to a new 96-well plate.
Fill the wells in the Transwell insert (apical compartment) with 75 μL of HBSS (10 mM HEPES, pH 7.4).
The assay is performed in duplicate. The plates are incubated at 37 °C for 2 h. At the end of the incubation, 50 μL samples from donor sides (apical compartment for Ap→Bl flux, and basolateral compartment for Bl→Ap) and receiver sides (basolateral compartment for Ap→Bl flux, and apical compartment for Bl→Ap) are transferred to wells of a new 96-well plate, followed by the addition of 4 volume of cold acetonitrile containing appropriate internal standards (IS). Samples are Vortexed for 5 minutes and then centrifuged at 3,220 g for 30 minutes. An aliquot of 100 µL of the supernatant is mixed with an appropriate volume of ultra-pure water before LC-MS/MS analysis (see SI Bioanalytical Method for Caco-2 Cell Permeability […]
Papp (A to B) is greater than the Papp (A to B) of minoxidil it is assigned as high permeability. If the Papp (A to B) is […]

[2] = log D7.4 by shake-flask method (1-octanol/PBS); assay type: physicochemical
Protocol: (§1) One explanation for the high IC50 values (i.e., low activity) of the new compounds is their potential poor solubility in aqueous solution or inadequate lipophilicity. To investigate this hypothesis, we determined kinetic solubility in […] phosphate buffer at pH 7.4 (Table 1). […] The remaining two compounds, BE and 29, show low solubilities (<0.1 μM). […] Additionally, since approximately 95% of drugs are ionizable, assessment of lipophilicity at pH 7.4 (log D7.4) is essential during the initial phases of drug discovery. In this study, we employ the shake-flask method to evaluate this property. […] Because lipophilicity directly reflects compound–membrane interaction, the activity of these compounds against PANC-1 cells likely stems from their interaction with the cell membrane.
The basic solution is titrated with the acidic solution to achieve pH 7.4, with the pH verified and adjusted to 7.4 ± 0.1 on the experiment day. Saturated 1-octanol and PBS (pH 7.4) are also prepared. The stock solutions of test compounds and control compound progesterone are prepared in DMSO at a concentration of 10 mM (0.666 mM: compound 39). The detailed procedure for log D determinations can be found in the SI. […]
4. Procedure for log D determinations […]
µL of phosphate buffer saturated 1-octanol to get a concentration of 300 µM working solution. 20 µL of 300 µM compound solution is placed in order into their proper 96-well rack followed by the addition of 980 µL of 1-octanol saturated phosphate buffer. One stir stick is added to each vial and vials are sealed molded PTFE/Silicone plugs. Then the log D plate is transferred to the Eppendorf Thermomixer Comfort plate shaker and shaken at 25°C at 1,100 RPM for 1 h. The assay is performed in duplicate. After completion of 1 h, the stir sticks are removed using a big magnet. The samples are then centrifuged at 25°C at 20,000 g for 20 minutes to separate the phases, and syringe is used to remove the lower (buffer) phases to the empty tubes. Then the buffer phase is diluted with the same volume of acetonitrile/ultrapure water (50%/50%) for LC-MS/MS analysis. 300 µM working solution is diluted with acetonitrile/ultrapure water (50%/50%) to achieve a concentration of 3 µM. Then the 3 µM solution is diluted to 0.3 µM to get the total samples by adding 4 volumes of acetonitrile/ultrapure water (50%/50%) and 5 volumes of 1-octanol saturated Phosphate Buffer for LC-MS/MS analysis. […]
test compounds and control compound is placed in order into their 2.0 mL deep well plate, 500 µL of […]
followed by the addition of 500 µL of saturated PBS (pH 7.4). Seal the plate using a Silicone sealing mat.
Then the log D plate is transferred to the Eppendorf Thermomixer Comfort plate shaker and shaken at 25°C at 2,000 RPM for 2 h. After completion of 2 h, the samples are then centrifuged at 25°C at 3,220 g for 30 minutes to separate the phases, and pipette are used to remove the upper (1-octanol) and lower (buffer) phases to the empty tubes, respectively. Aliquots of 50 µL are taken from upper phases followed by addition of 450 µL of acetonitrile (containing internal standards (IS, 200 nM labetalol, 100 nM tolbutamide and 100 nM ketoprofen)). Mix with a pipette, and then aliquots of 50 µL are taken from the diluent followed by addition of 450 µL of acetonitrile (containing internal standards (IS, 200 nM labetalol, 100 nM tolbutamide and 100 nM ketoprofen)). […]

[3] = Kinetic solubility in PBS pH 7.4; assay type: physicochemical; settings: sodium phosphate buffer (PBS), 25 °C, pH 7.4, aqueous buffer, kinetic from dmso stock, PBS pH 7.4, 25 °C
Protocol: as §1
Solubility is determined in 100 mM sodium phosphate buffer (PBS), pH 7.4. The stock solutions of test compound and control compound progesterone are prepared in DMSO at a concentration of 10 mM. 30 µL of working solutions of each sample is placed in order into their proper 96-well rack. 970 µL of PBS pH 7.4 is added into each vial of the cap-less Solubility Sample plate. The assay is performed in duplicate. Add one stir stick to each vial and seal using a molded PTFE/Silicone plug. Then the Solubility Sample plate is transferred to the Eppendorf Thermomixer Comfort plate shaker and shaken at 25 °C at 1100 RPM for 2 h. After completion of the 2 h, plugs are removed and the stir sticks are removed using a big magnet, the samples from the Solubility Sample plate are transferred into the filter plate. Using the Vacuum Manifold, all the samples are filtered. Aliquot of 5 µL is taken from the filtrate, followed by addition of 5 µL DMSO and 490 µL of a mixture of H2O and acetonitrile (1:1 in v/v). 200 μL of diluent is transferred to a new 96-well plate for LC-MS/MS analysis (see SI Bioanalytical Method for Solubility Measurement). The dilution factor is changed according to the solubility values and the LC-MS signal response.
MRM) / -4500 v (negative MRM). […]
13. Bioanalytical Method for Solubility Measurement
MS analysis: Triple Quad TM 5500 instrument from AB Inc (Canada) with an ESI interface
Injection volume: 1 μL, 3 μL, 5 μL or 10 μL
Column: ACQUITY UPLC BEH C18 (2.1 × 50 mmI.D. S-1.7 μm, 12 nm) Column
Mobile phase: 0.1% Ammonium hydroxide solution in water (A) and 0.1% Ammonium hydroxide solution
Column: XSelect Hss T3 2.5μm (2.1 × 50 mm) Column XP
Mobile phase: 0.1% formic acid in water (A) and 0.1% formic acid in acetonitrile (B)

[4] = read-out: Mean % Solution Recovery A to B
[5] = read-out: Mean % Solution Recovery B to A

Structure (SMILES) | efflux ratio at 2 h, 5 µM [1] | recovery at 2 h, 5 μM [1, 4] [%] | recovery at 2 h, 5 μM [1, 5] [%] | Papp A→B at 2 h, 5 µM [1] [×10⁻⁶ cm/s] | Papp B→A at 2 h, 5 µM [1] [×10⁻⁶ cm/s] | logD ([2]; 1-octanol/PBS, pH 7.4, 1-Octanol/PBS pH 7.4, shake-flask) | solubility at 2 h [3] [µM] | log D7.4 ([2]; 1-Octanol/PBS pH 7.4, shake-flask)
Nc1cc(N2CCCCC2)nc(N)[n+]1[O-] [Minoxidil, reference compound] | 1.08 | 104 | 106 | 9.52 | 10.3 |  |  | 
C[C@H]1O[C@@H](O[C@H]2[C@@H](O)C[C@H](O[C@H]3[C@@H](O)C[C@H](O[C@H]4CC[C@@]5(C)[C@H](CC[C@@H]6[C@@H]5C[C@@H](O)[C@]5(C)[C@@H](C7=CC(=O)OC7)CC[C@]65O)C4)O[C@@H]3C)O[C@@H]2C)C[C@H](O)[C@@H]1O [Digoxin, reference compound] | 25.9 | 83.2 | 95 | 0.77 | 20 |  |  | 
CC(=O)[C@H]1CC[C@H]2[C@@H]3CCC4=CC(=O)CC[C@]4(C)[C@H]3CC[C@]12C [Progesterone, reference compound] |  |  |  |  |  | 3.85 | 13.1 (≈ 4.13 µg/mL) | 
C[C@@H]1C(=O)[C@](C)(O)C(=O)NCC(=O)N[C@H](CN2CCN(C)CC2)/C=C/C(=O)N(C)CC(=O)O[C@H]1CCCCCc1cn(CCCCCCCCCC(=O)O)nn1 [Compound 39] | 1.26 | 99.5 | 48.6 | 0.0836 | 0.105 |  |  | −0.30
